From US20230174584A1, “Antibiotic Compounds” (priority 2019, published 2023)
Converted amounts (≈) assume the structure as drawn.

Legend:
[1] = tested on: S. aureus NY-155, NR-46236; test: MIC assay; format: cell-based, Staphylococcus aureus
Outline: (§1)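 Read-out: lowest concentration inhibiting growth, reported as the median MIC (μg/mL) over ≥ triplicates. Set-up: CLSI method, TSB with 0.002% polysorbate 80, 10^6 CFU/mL inoculum added in equal volume to 2-fold dilutions, 37 °C for 24 h with 600 rpm agitation.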

[2] = tested on: S. aureus HIP12864, NR-46074; test: MIC assay; format: cell-based, Staphylococcus aureus
Outline: as §1

S. aureus ATCC29213 = test: MIC assay; format: cell-based, Staphylococcus aureus
Outline: as §1

[3] = tested on: S. aureus LIM-2, NR-25881; test: MIC assay; format: cell-based, Staphylococcus aureus
Outline: as §1

[4] = tested on: S. aureus 880 (BR-VRSA), NR-49120; test: MIC assay; format: cell-based, Staphylococcus aureus
Outline: as §1

[5] = tested on: panel of 31 vancomycin-resistant E. faecium strains; test: MIC assay, MIC50/MIC90 over panel; format: cell-based, Enterococcus faecium
Description: The antibacterial activity of the compounds was tested against a panel of bacteria, including Gram-positive bacteria (S. aureus ATCC29213, S. aureus USA300, S. aureus LIM-2, NR-45881, S. aureus HIP13419, NR-46413, E. faecium E155, E. faecium E7314, E. faecium E980, E. faecalis E1246, E. faecalis E7406 and S. pneumonia 153). The antibacterial activity of the compounds was further tested against S. aureus NY-155, NR-46236, S. aureus HIP12864, NR-46074, S. aureus 880 (BR-VRSA), NR-49120, E. faecalis E1246, E. faecalis E7604, as well as some Gram-negative bacteria (Escherichia coli and Klebsiella pneumoniae). Minimum inhibitory concentrations (MICs) in μg/mL were performed according to the CLSI guidelines. From glycerol stocks, bacterial strains were cultured on blood agar plates and incubated at 37° C. for 18 h. A single colony was transferred to tryptic soy broth (TSB) with 0.002% polysorbate 80 (p80). For the Enterococcus, VISA and VRSA strains, the cultures were grown at 37° C. until the optical density of the suspension reached a level equivalent to the 0.5 McFarland standard. The bacterial suspensions were diluted in TSB with 0.002% p80 to reach a bacterial cell density of 10^6 CFU/mL. In case of the other (vancomycin-sensitive) S. aureus strains, the direct colony suspension method was used. For these strains, after transfer of the colonies to TSB with 0.002% p80, they were immediately diluted to 10^6 CFU/mL, instead of incubated prior to this dilution. In the case of S. pneumonia, direct colony suspension was used by immediately suspending multiple colonies from fresh blood agar plates in TSB+0.002% p80 to an OD600 of 0.5 and subsequent dilution to 10^6 CFU mL^−1 in TSB+0.002% p80+5% lysed horse blood. Antibiotic dilutions for this strains were also made in TSB+0.002% p80+5% lysed horse blood. Both agar and microplates containing S. pneumonia were incubated at 37° C. with 5% CO2 for 24 h with constant shaking (600 rpm). […] The cultures were grown to exponential phase (OD600=0.5) at 37° C. […] In polypropylene 96-well microtiter plates, test compounds were added in biological triplicates and serial diluted 2-fold by transfer and mixing from one well to the next to achieve a final volume of 50 μL per well. An equal volume of bacterial suspension (10^6 CFU mL^−1) was added to the wells. The plates were sealed with breathable membranes and incubated at 37° C. for 24 h with constant shaking (600 rpm). In polypropylene microtiter plates, 100 μL of the test compounds was added to the first row in biological triplicates, and 50 μL of media was added to the other wells. The compounds were subjected to serial dilution by transfer and mixing of 50 μL from one well to the next. Subsequently, 50 μL of bacterial suspension (10^6 CFU/mL) was added to the wells. The plates were sealed with breathable membranes and incubated at 37° C. for 24 h with constant shaking (600 rpm). Positive growth control consisted of wells with bacterial suspension and without antibiotic. Negative growth control consisted of solely media without bacterial suspension or antibiotic. The MICs were determined from the median of a minimum of triplicates.

E. faecium E2359 = test: MIC assay; format: cell-based, Enterococcus faecium
E. faecium E1441 = test: MIC assay; format: cell-based, Enterococcus faecium
E. faecium EO321 = test: MIC assay; format: cell-based, Enterococcus faecium
Outline: as §1

E. faecium E7319 = test: MIC assay; format: cell-based, Enterococcus faecium
Outline: as §1

E. faecium E7424 = test: MIC assay; format: cell-based, Enterococcus faecium
Outline: as §1

E. faecium E0745 = test: MIC assay; format: cell-based, Enterococcus faecium
Outline: as §1

E. faecium E2373 = test: MIC assay; format: cell-based, Enterococcus faecium
Outline: as §1

E. faecium E0506 = test: MIC assay; format: cell-based, Enterococcus faecium
Outline: as §1

E. faecium E1130 = test: MIC assay; format: cell-based, Enterococcus faecium
Outline: as §1

E. faecium E980 = test: MIC assay; format: cell-based, Enterococcus faecium
Outline: as §1

E. faecium E0300 = test: MIC assay; format: cell-based, Enterococcus faecium
Outline: as §1

E. faecium E0333 = test: MIC assay; format: cell-based, Enterococcus faecium
Outline: as §1

E. faecium E7413 = test: MIC assay; format: cell-based, Enterococcus faecium
Outline: as §1

E. faecium E0072 = test: MIC assay; format: cell-based, Enterococcus faecium
Outline: as §1

[6] = panel of 31 vancomycin-resistant E. faecium strains
[7] = Staphylococcus aureus, ATCC 29213 / MSSA

## CN[C@H](CC(C)C)C(=O)N[C@H]1C(=O)N[C@@H](CC(N)=O)C(=O)N[C@H]2C(=O)N[C@H]3C(=O)N[C@H](C(=O)N[C@H](C(=O)O)c4cc(O)cc(O)c4-c4cc3ccc4O)[C@H](O)c3ccc(c(Cl)c3)Oc3cc2cc(c3O[C@@H]2O[C@H](CO)[C@@H](O)[C@H](O)[C@H]2O[C@H]2C[C@](C)(NCc3ccc(N=C(N)NC/C=C(\C)CCC=C(C)C)cc3)[C@H](O)[C@H](C)O2)Oc2ccc(cc2Cl)[C@H]1O [Compound 14]
[1]; S. aureus NY-155, NR-46236 MRSA
  MIC: ≤0.008 µg/mL
[2]; S. aureus HIP12864, NR-46074 VISA
  MIC: 0.031 µg/mL (≈ 0.0179 µM)
S. aureus ATCC29213; S. aureus ATCC29213 MSSA
  MIC: ≤0.007812 µg/mL
[3]; S. aureus LIM-2, NR-25881 VISA
  MIC: ≤0.008 µg/mL
[4]; S. aureus 880, NR-49120 VRSA
  MIC: 1 µg/mL (≈ 0.577 µM)
[5]; [6]
  MIC50: 1 µg/mL (≈ 0.577 µM)
  MIC90: 8 µg/mL (≈ 4.62 µM)
E. faecium E2359; E. faecium E2359, VanB
  MIC: ≤0.008 µg/mL
E. faecium E1441; E. faecium E1441, VanA
  MIC: 4 µg/mL (≈ 2.31 µM)
E. faecium EO321; E. faecium EO321, VanA
  MIC: 8 µg/mL (≈ 4.62 µM)
E. faecium E7319; E. faecium E7319, VanA
  MIC: 0.5 µg/mL (≈ 0.289 µM)
E. faecium E7424; E. faecium E7424, VanB
  MIC: ≤0.008 µg/mL
E. faecium E0745; E. faecium E0745, VanA
  MIC: 1 µg/mL (≈ 0.577 µM)
E. faecium E2373; E. faecium E2373, VanA
  MIC: 4 µg/mL (≈ 2.31 µM)
E. faecium E0506; E. faecium E0506, VanA
  MIC: 2 µg/mL (≈ 1.15 µM)
E. faecium E1130; E. faecium E1130, VanA
  MIC: ≤0.008 µg/mL
E. faecium E980; E. faecium E980 VSE
  MIC: ≤0.007812 µg/mL
E. faecium E0300; E. faecium E0300, VanA
  MIC: 4 µg/mL (≈ 2.31 µM)
E. faecium E0333; E. faecium E0333, VanA
  MIC: 8 µg/mL (≈ 4.62 µM)
E. faecium E7413; E. faecium E7413, VanA
  MIC: 8 µg/mL (≈ 4.62 µM)
E. faecium E0072; E. faecium E0072, VanA
  MIC: 0.5 µg/mL (≈ 0.289 µM)

## CCCCCCCCCCNCCN[C@@]1(C)C[C@H](O[C@H]2[C@H](Oc3c4cc5cc3Oc3ccc(cc3Cl)[C@@H](O)[C@@H](NC(=O)[C@@H](CC(C)C)NC)C(=O)N[C@@H](CC(N)=O)C(=O)N[C@H]5C(=O)N[C@H]3C(=O)N[C@H](C(=O)N[C@H](C(=O)O)c5cc(O)c(CNCP(=O)(O)O)c(O)c5-c5cc3ccc5O)[C@H](O)c3ccc(c(Cl)c3)O4)O[C@H](CO)[C@@H](O)[C@@H]2O)O[C@@H](C)[C@H]1O [Telavancin, reference compound]
[1]; Staphylococcus aureus, MRSA
  MIC: 0.031 µg/mL (≈ 0.0177 µM)
[2]; Staphylococcus aureus, VISA
  MIC: 0.25 µg/mL (≈ 0.142 µM)
S. aureus ATCC29213; [7]
  MIC: 0.125 µg/mL (≈ 0.0712 µM)
[3]; Staphylococcus aureus, VISA
  MIC: 0.25 µg/mL (≈ 0.142 µM)
[4]; Staphylococcus aureus, VRSA
  MIC: 8 µg/mL (≈ 4.56 µM)
[4]; strain BR-VRSA
  MIC: 8 µg/mL (≈ 4.56 µM)
[5]; Enterococcus faecium
  MIC50: 4 µg/mL (≈ 2.28 µM)
  MIC90: 8 µg/mL (≈ 4.56 µM)
E. faecium E2359; Enterococcus faecium, E2359
  MIC: ≤ 0.008 µg/mL
E. faecium E1441; Enterococcus faecium, E1441
  MIC: 8 µg/mL (≈ 4.56 µM)
E. faecium EO321; Enterococcus faecium, EO321
  MIC: 16 µg/mL (≈ 9.11 µM)
E. faecium E7319; Enterococcus faecium, E7319
  MIC: 8 µg/mL (≈ 4.56 µM)
E. faecium E7424; Enterococcus faecium, E7424
  MIC: ≤ 0.008 µg/mL
E. faecium E0745; Enterococcus faecium, E0745
  MIC: 4 µg/mL (≈ 2.28 µM)
E. faecium E2373; Enterococcus faecium, E2373
  MIC: 8 µg/mL (≈ 4.56 µM)
E. faecium E0506; Enterococcus faecium, E0506
  MIC: 4 µg/mL (≈ 2.28 µM)
E. faecium E1130; Enterococcus faecium, E1130
  MIC: ≤ 0.008 µg/mL
E. faecium E980; Enterococcus faecium, E980
  MIC: 0.0156 µg/mL (≈ 0.0089 µM)
E. faecium E0300; Enterococcus faecium, E0300
  MIC: 8 µg/mL (≈ 4.56 µM)
E. faecium E0333; Enterococcus faecium, E0333
  MIC: 8 µg/mL (≈ 4.56 µM)
E. faecium E7413; Enterococcus faecium, E7413
  MIC: 8 µg/mL (≈ 4.56 µM)
E. faecium E0072; Enterococcus faecium, E0072
  MIC: 2 µg/mL (≈ 1.14 µM)

## CN[C@H](CC(C)C)C(=O)N[C@H]1C(=O)N[C@@H](CC(N)=O)C(=O)N[C@H]2C(=O)N[C@H]3C(=O)N[C@H](C(=O)N[C@H](C(=O)O)c4cc(O)cc(O)c4-c4cc3ccc4O)[C@H](O)c3ccc(c(Cl)c3)Oc3cc2cc(c3O[C@@H]2O[C@H](CO)[C@@H](O)[C@H](O)[C@H]2O[C@H]2C[C@](C)(N)[C@H](O)[C@H](C)O2)Oc2ccc(cc2Cl)[C@H]1O [Vancomycin, reference compound]
[1]; Staphylococcus aureus, MRSA
  MIC: 2 µg/mL (≈ 1.38 µM)
[2]; Staphylococcus aureus, VISA
  MIC: 8 µg/mL (≈ 5.52 µM)
S. aureus ATCC29213; [7]
  MIC: 1 µg/mL (≈ 0.69 µM)
[3]; Staphylococcus aureus, VISA
  MIC: 8 µg/mL (≈ 5.52 µM)
[4]; Staphylococcus aureus, VRSA
  MIC: > 128 µg/mL
[4]; strain BR-VRSA
  MIC: >128 µg/mL
[5]; Enterococcus faecium
  MIC50: 128 µg/mL (≈ 88.3 µM)
  MIC90: 128 µg/mL (≈ 88.3 µM)
E. faecium E2359; Enterococcus faecium, E2359
  MIC: 128 µg/mL (≈ 88.3 µM)
E. faecium E1441; Enterococcus faecium, E1441
  MIC: > 128 µg/mL
E. faecium EO321; Enterococcus faecium, EO321
  MIC: > 128 µg/mL
E. faecium E7319; Enterococcus faecium, E7319
  MIC: > 128 µg/mL
E. faecium E7424; Enterococcus faecium, E7424
  MIC: 4 µg/mL (≈ 2.76 µM)
E. faecium E0745; Enterococcus faecium, E0745
  MIC: > 128 µg/mL
E. faecium E2373; Enterococcus faecium, E2373
  MIC: > 128 µg/mL
E. faecium E0506; Enterococcus faecium, E0506
  MIC: > 128 µg/mL
E. faecium E1130; Enterococcus faecium, E1130
  MIC: > 128 µg/mL
E. faecium E980; Enterococcus faecium, E980
  MIC: 0.5 µg/mL (≈ 0.345 µM)
E. faecium E0300; Enterococcus faecium, E0300
  MIC: > 128 µg/mL
E. faecium E0333; Enterococcus faecium, E0333
  MIC: > 128 µg/mL
E. faecium E7413; Enterococcus faecium, E7413
  MIC: > 128 µg/mL
E. faecium E0072; Enterococcus faecium, E0072
  MIC: > 128 µg/mL
